# Measurements: KR20200032170A, “편두통 및 군발성 두통의 치료를 위한 졸미트립탄의 치료적 농도를 신속하게 달성하는 방법” (조사노 파마 코포레이션, priority 2017, dated 2019)
# Read-outs that look alike come from different tables or passages of the source.
# Experiments:
# migraine (편두통) = details: cited from earlier work; for pain freedom at 2 h / pain relief at 2 h: lowest oral dose; for pain freedom: nasal zolmitriptan
# [1] = cited from earlier work
# Zolmitriptan pKa = type: physicochemical
smiles,measurement,setting,value
CNS(=O)(=O)CCc1ccc2[nH]cc(C3CCN(C)CC3)c2c1 [나라트립탄],pain freedom at 2 h,migraine (편두통),18%
same,pain relief at 2 h,migraine (편두통),49%
CNCCc1c[nH]c2ccc(C[C@H]3COC(=O)N3)cc12 [N-데스메틸 졸미트립탄],metabolite concentration relative to zolmitriptan concentration,[1]; in vivo,2/3
CNS(=O)(=O)Cc1ccc2[nH]cc(CCN(C)C)c2c1 [수마트립탄],onset of action,migraine (편두통); injected,≤ 10 min
same,Tmax,[1]; oral tablet,~2 h
same,oral bioavailability,"[1]; oral, as succinate",~15%
CN(C)CCc1c[nH]c2ccc(C[C@H]3COC(=O)N3)cc12 [졸미트립탄],pain freedom at 2 h,migraine (편두통),29%
same,pain relief at 2 h,migraine (편두통),62%
same,pain freedom,migraine (편두통); 1 h,~10%
same,pain freedom,migraine (편두통); 2 h,< 25%
same,pain freedom,migraine (편두통); 4 h,< 40%
same,efficacy and tolerability (in words),migraine (편두통); placebo-controlled clinical trials,효과적이고 우수한 내약성을 갖는 것으로 보여졌다
same,Tmax,[1]; nasal administration,~1.5 h
same,pKa (weak base),Zolmitriptan pKa,9.6
